In assay [1] the target is T1, catalytic core of a human recombinant Glepp-1 (Homo sapiens, UniProt Q16827).
T1 construct: using the catalytic core of a human recombinant Glepp-1 as the enzyme; made in house
T1 sequence (Q16827 938-1195 limits assumed): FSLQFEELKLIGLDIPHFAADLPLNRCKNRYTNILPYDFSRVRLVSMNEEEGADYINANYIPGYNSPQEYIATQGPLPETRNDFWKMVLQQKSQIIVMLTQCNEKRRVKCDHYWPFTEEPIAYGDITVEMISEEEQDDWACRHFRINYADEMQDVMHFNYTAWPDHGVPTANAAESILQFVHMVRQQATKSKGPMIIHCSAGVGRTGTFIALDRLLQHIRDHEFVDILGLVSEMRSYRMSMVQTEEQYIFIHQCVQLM
Kind of assay: Glepp-1 PTP enzyme assay (DiFMUP dephosphorylation). It is filed as biochemical. The following applies: Glepp-1, DiFMUP substrate, 30 minutes at room temperature; read-out: Inhibition (IC50). The source says: The PTP Enzyme Assay aims at determining the extent of inhibition of Glepp-1 in the presence of a test compound. The inhibition is illustrated by IC50 values which denote the concentration of test compound necessary to achieve an inhibition of 50% of Glepp-1 using the following concentration of the Glepp-1 substrate DiFMUP:
The DiFMUP assay allows to follow the dephosphorylation of DiFMUP (6,8-DiFluoro-4-MethylUmbelliferyl Phosphate)—which is the Glepp-1 substrate—mediated by Glepp-1 into its stable hydrolysis product, i.e. DiFMU (6,8-difluoro-7-hydroxy coumarin). Due to its rather low pKa and its high quantum yield, DiFMU allows to measure both acidic and alkaline phosphatase activities with a great sensitivity.
Assays were performed in a 96 well plate format, using the catalytic core of a human recombinant Glepp-1 as the enzyme and 6,8-DiFluoro-4-MethylUmbelliferyl Phosphate (DiFMUP, Molecular Probes, D-6567) as a substrate. Compounds to be tested were dissolved in 100% DMSO at a concentration of 2 mM. Subsequent dilutions of the test compounds (to yield a concentration of 100, 30, 10, 3, 1, 0.3, 0.1, 0.03, 0.01, 0.001 μM) were performed in 60% DMSO manually. 8 μl of diluted compound or vehicle (60% DMSO=control) was distributed to a black Costar 96 well plate. 42 μl of human recombinant Glepp-1 enzyme diluted in assay buffer (20 mM Tris HCl pH 7.5, 0.01% IGEPAL CA-630, 0.1 mM ethylenediaminetetracetic acid, 1 mM DL-Dithiothreitol) can be added to the dilutions of compound or vehicle (distributed to a black Costar 96 well plate), followed by 50 μl of DiFMUP diluted in the assay buffer. The reaction ran for 30 minutes at room temperature before reading the fluorescence intensity (integral or intensity) on a Perkin-Elmer Victor 2 spectrofluorimeter (excitation of 6,8-difluoro-7-hydroxy coumarin is at 355 nm, the emission at 460 nm, for 0.1 s). The percentage of inhibition is determined by measuring the relative fluorescence ion absence of a test compound (PTP inhibitor), i.e. with the solvent alone (5% DMSO). The IC50 values for inhibition were determined in triplicates.

The subject of another assay is THP-1 cells. The assay can be described thus: In vitro chemotaxis, MCP-1-induced, THP1 cells (transwell). Format: cell-based. The following applies: Homo sapiens, MCP-1/CCL2 in lower chamber, 3 hours, read-out: block chemotaxis, EC50. An excerpt: The compounds of Formula (I), (II), (III), (IV), (V), (VI) and (VII), may be subjected to the following assays: • (1) Glepp-1 binding assay (in vitro) • (2) In vitro assay(s): Cell functional effect. Effect on MCP-1-induced chemotaxis on THP-1 cells • (3) Lymphocyte recruitment by thioglycollate (in vivo model for inflammation) • (4) Collagen induced arthritis (CIA) in mice (in vivo model for inflammation) • (5) Contact hypersensitivity (CHS is a T cell-mediated model of skin inflammation) • (6) EAE (in vivo model for MS) • (7) Ulcerative colitis
The assay was performed as follows: After starvation of THP1 cells in serum free medium for 3 hours, 10^7 cells/ml in medium containing 0.5% BSA, and inhibitors, when indicated. 100 μl of cells were applied to the top chamber (5 μm pore size transwell plates, COSTAR, New York) and 6001 of medium containing MCP-1/CCL2, in the absence or presence of test compounds, were added to the lower chamber. After incubation at 37° C. and 5% of CO2 for 3 hours, cells that passed through the membrane were collected and counted in a Beckman Coulter® AcT 5Diff™.

The test system of a further assay is Balb/c mice. The assay can be described thus: Dextran Sodium Sulfate-induced ulcerative colitis in mice. Format: in vivo. The following applies: for body weight loss: po. How it is done: Ulcerative colitis (UC) was induced in female mice (Balb/c, 20-22 g, Elevage Janvier) by Dextran Sodium Sulfate (DSS 4%) administered in drinking water. The mice had free access to DSS during 7 days. Body weight was determined daily. The severity of the UC was assessed by a clinical score (range 0 to 4) estimating the constituency of the stool (0=firm, 1=loose, 2=diarrhea) and the presence of blood (0=no blood, 1=occult blood, 2=gross rectal bleeding). Seven days after the induction of the disease, the animals were sacrificed. The length and the weight of the colon were determined and the ratio Weight/Length/100 g body weight was calculated. The spleen weight was also determined.
Compound of the invention (10, 30 & 100 mg/kg, po) was suspended in 0.5% methocel/0.25% tween 20 and was administered twice daily at days 3, 4, 5 and 6 after the induction of the UC. Sulfasalazine (200 mg/kg, po) was used as reference compound.

Where [2] appears, read: 10 mg/kg po twice daily days 3-6, versus vehicle treated group.
Setting [3] is: 30 mg/kg po twice daily days 3-6, versus vehicle treated group.
Where [4] appears, read: 100 mg/kg po twice daily days 3-6, versus vehicle treated group.

Structures are written as SMILES.

Turning to `CCCCCCN(Cc1ccc(C#Cc2ccc(CCCC)cc2)cc1)c1ccc(O)c(C(=O)O)c1` [5-[{4-[(4-butylphenyl)ethynyl]benzyl}(hexyl)amino]-2-hydroxybenzoic acid], in assay [1], the IC50 was less than 1 µM. Moreover, the 50% effective concentration (EC50) in the assay with THP-1 cells lay within 1 to 15 µM. Moreover, the “colon reduction, estimated by the Weight/Length ratio” value in the assay on Balb/c mice (setting [2]) is given as −22%; with Balb/c mice (setting [3]) it was −28%; in the assay with Balb/c mice (setting [4]) it was −35%. Also, the splenomegaly reduced is −31% in the assay with Balb/c mice (setting [3]) and −65% in the assay with Balb/c mice (setting [4]). Moreover, in the assay with Balb/c mice (10, 30 & 100 mg/kg), the body weight loss entry is listed as “prevented”.

`O=C1NN(c2ccc(I)cc2)C(=O)/C1=C/c1ccc(Br)o1` [(4E)-4-[(5-bromo-2-furyl)methylene]-1-(4-iodophenyl)pyrazolidine-3,5-dione]: in assay [1], the IC50 is less than 1 µM.

Regarding `CCCCCCN(Cc1ccccc1C#Cc1ccc(CCCC)cc1)C(=O)c1ccc(O)c(C(=O)O)c1` [5-{[{2-[(4-butylphenyl)ethynyl]benzyl}(hexyl)amino]carbonyl}-2-hydroxybenzoic acid], in the assay on Balb/c mice (setting [2]), the “colon reduction, estimated by the Weight/Length ratio” value was −47% and the splenomegaly reduced is recorded as −25%. In the assay with Balb/c mice (setting [3]), the “colon reduction, estimated by the Weight/Length ratio” value was −50% and the splenomegaly reduced is −45%. The body weight loss entry with Balb/c mice (10 & 30 mg/kg) is reported as “prevented”.

On to `CCCCCCc1ccc(C#Cc2ccc(CN(Cc3ccc(C(F)(F)F)cc3)C(=O)C(=O)O)cc2)cc1` [{{4-[(4-hexylphenyl)ethynyl]benzyl}[4-(trifluoromethyl)benzyl]amino}-(oxo)acetic acid], for which the IC50 in assay [1] is less than 1 µM. In addition, the EC50 in the assay on THP-1 cells lay within 1 to 15 µM.

For `CCCCCCCCC#Cc1ccc(CN(C(=O)/C=C/c2cccc(C(F)(F)F)c2)c2ccc(O)c(C(=O)O)c2)cc1` [5-((4-dec-1-ynylbenzyl){(2E)-3-[3-(trifluoromethyl)phenyl]prop-2-enoyl}amino)-2-hydroxybenzoic acid], the IC50 in assay [1] is less than 1 µM.

As for `CCCCCCCCNC(=O)c1ccc(-c2nc(CN(Cc3ccc(OCC(=O)O)cc3)C(=O)CCc3ccccc3)cs2)cc1` [(4-{[[(2-{4-[(octylamino)carbonyl]phenyl}-1,3-thiazol-4-yl)methyl](3-phenylpropanoyl)amino]methyl}phenoxy)acetic acid], the IC50 in assay [1] was less than 1 µM.

In the case of `CCCCCCN(Cc1ccc(C#Cc2ccc(CCCC)cc2)cc1)C(=O)c1ccc(O)c(C(=O)O)c1` [5-{[{4-[(4-butylphenyl)ethynyl]benzyl}(hexyl)amino]carbonyl}-2-hydroxybenzoic acid], the IC50 in assay [1] is less than 1 µM. For the same compound, the EC50 with THP-1 cells lay within 1 to 15 µM.

Turning to `N#Cc1ccc(C(=O)Nc2ccc(C(=O)N/N=C3\C(=O)Nc4ccc(I)cc43)cc2)cc1` [4-cyano-N-(4-{[(2Z)-2-(5-iodo-2-oxo-1,2-dihydro-3H-indol-3-ylidene)hydrazino]carbonyl}phenyl)benzamide], the IC50 in assay [1] was less than 1 µM.

What is called IC50 is the concentration that inhibits the measured activity by half. For orientation: EC50 means the midpoint of the concentration-response curve.

These data come from patent publication US20080207722A1, “Glepp-1 Inhibitors in the Treatment of Autoimmune and/or Inflammatory Disorders” (LABORATORIES SERONO SA, priority 2005, published 2008).
